Data taken from article PMC10818523, “Novel Flurbiprofen Derivatives as Antioxidant and Anti-Inflammatory Agents: Synthesis, In Silico, and In Vitro Biological Evaluation” (Molecules, 2024).
Like-named read-outs stand apart in the source and are kept apart here.

Experiments:
[1] = Hydrogen peroxide scavenging activity (HPSA); format: biochemical; settings: antioxidant activity, H2O2 scavenging, 10 min at 37 °C, mean ± SD of triplicates
Protocol: The Manolov et al. method was used to assess the hydrogen peroxide scavenging capability. A 43 mM solution of H2O2 was prepared in potassium phosphate buffer solution (0.2 M, pH 7.4). The analysis of the samples was carried out as follows: in test tubes, 0.6 mL H2O2 (43 mM), 1 mL sample or reference compounds with different concentrations (20–1000 µg/mL), and 2.4 mL potassium phosphate buffer solution were mixed. The mixture was stirred and incubated in the dark for 10 min at 37 °C. Absorbance was measured at 230 nm with a spectrophotometer (Camspec M508, Leeds, UK) against a blank solution containing phosphate buffer and H2O2 without the sample. Ascorbic acid and quercetin were used as reference compounds. The percentage HPSA of the samples was evaluated by comparing with a blank sample and calculated using the following formula: I,%(HPSA)=Ablank−(ATS−ACS)/Ablank×100 where Ablank is the absorbance of the blank sample, ACS is the absorbance of the control sample, and ATS is the absorbance of the test sample.
(§1) All of the analyses were made in triplicates. Data were expressed as mean ± SD. The level of significance was set at p < 0.05. The mean IC50 value was estimated based on three replicates by interpolating the graphical dependence of activity on concentration. Statistical program SPSS 19.0 software was used for data analysis by one-way ANOVA followed by Duncan’s post hoc test to evaluate differences between mean values of activities (SPSS Inc., Chicago, IL, USA).

bovine trypsin = target: T1, bovine trypsin (Bos taurus, UniProt P00760); assay: Antitryptic activity (ATA); format: biochemical; settings: human albumin as substrate, mean ± SD of triplicates
T1 sequence (P00760 24-246): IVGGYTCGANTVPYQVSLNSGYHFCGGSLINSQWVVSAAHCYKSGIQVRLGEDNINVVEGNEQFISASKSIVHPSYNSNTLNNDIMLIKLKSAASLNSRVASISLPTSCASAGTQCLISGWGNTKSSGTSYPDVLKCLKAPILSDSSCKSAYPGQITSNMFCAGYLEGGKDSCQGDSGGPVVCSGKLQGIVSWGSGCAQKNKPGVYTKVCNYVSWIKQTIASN
Protocol: This method is known also as an in vitro anti-arthritic activity. The analysis was performed according to the method of Oyedapo and Femurewa with minor modification as described by Manolov et al.. The reaction mixture was containing 2 mL 0.06 mg/mL bovine trypsin, 1 mL Tris-HCl buffer (20 mM, pH 7.4) and 1 mL test sample or reference (in methanol) of different concentrations (20-1000 μg/mL). The mixture was incubated at 37 °C for 5 min. Then 1 mL of human albumin (4% v/v) was added. The mixture was incubated for an additional 20 min. To the mixture 2 mL of 70% perchloric acid was added for termination of the reaction. The cloudy suspension was cooled and centrifuged at 5000 rpm for 20 min. The absorbance of the supernatant was measured at 280 nm with a spectrophotometer ([…], UK) against control solution. The control solution was sample or reference in methanol with different concentrations. Ibuprofen and flurbiprofen were used as reference compounds. The analysis was performed three times. The percentage of antitryptic activity (ATA) of the samples was evaluated by comparing with a blank sample. The blank sample is prepared as the test sample but with a small exception-perchloric acid is added before albumin. %ATA=Ablank-ATS-ACS/Ablank×100 where Ablank is the absorbance of the blank sample, ACS is the absorbance of the control solution (test sample in different concentrations) and ATS is the absorbance of the test samples. All of the analyses were made in triplicates. Data were expressed as mean ± SD. The level of significance was set at p < 0.05. The mean IC50 value was estimated based on three replicates by interpolating the graphical dependence of activity on concentration. Statistical program SPSS 19.0 software was used for data analysis by one-way ANOVA followed by Duncan's post hoc test to evaluate differences between mean values of activities (SPSS Inc., Chicago, IL, USA).

[2] = Experimental determination of lipophilicity (RM), reversed-phase thin-layer chromatography; format: physicochemical; settings: dimensionless, from thin-layer chromatography Rf
From the text: Lipophilicity can be assessed through either calculation or experimental methods. In our study, we determined the lipophilicity of the resulting flurbiprofen derivatives using a practical approach, employing reversed-phase thin-layer chromatography, a technique previously reported by Hadjipavlou-Litina.
The method employed for assessing the lipophilicity of flurbiprofen derivatives followed the procedure outlined by Hadjipavlou-Litina.

human albumin = human albumin (Homo sapiens, UniProt P02768); assay: Inhibition of albumin denaturation (IAD); format: biochemical; settings: heated at 70 °C for 15 min, mean ± SD of triplicates
Chain of human albumin (P02768 25-609): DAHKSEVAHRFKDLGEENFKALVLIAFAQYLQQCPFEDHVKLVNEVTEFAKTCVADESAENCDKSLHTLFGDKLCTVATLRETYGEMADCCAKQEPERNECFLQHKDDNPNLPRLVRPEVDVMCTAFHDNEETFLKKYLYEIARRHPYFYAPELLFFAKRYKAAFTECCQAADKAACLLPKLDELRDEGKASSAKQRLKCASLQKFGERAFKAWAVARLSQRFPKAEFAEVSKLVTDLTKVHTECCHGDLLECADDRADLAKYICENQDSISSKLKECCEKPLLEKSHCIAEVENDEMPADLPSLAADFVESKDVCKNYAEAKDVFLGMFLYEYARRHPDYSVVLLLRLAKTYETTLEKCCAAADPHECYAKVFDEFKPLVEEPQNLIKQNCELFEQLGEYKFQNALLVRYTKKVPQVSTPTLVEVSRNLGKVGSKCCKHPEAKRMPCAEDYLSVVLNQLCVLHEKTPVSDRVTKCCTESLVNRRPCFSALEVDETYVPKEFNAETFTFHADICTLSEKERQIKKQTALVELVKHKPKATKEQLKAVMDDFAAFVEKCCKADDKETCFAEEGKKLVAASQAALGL
Protocol: In vitro analysis of anti-inflammatory activity was assessed as inhibition of albumin denaturation (IAD). The analysis was performed according Manolov et al. method. The experiment was performed with human albumin. The solution of albumin (1%) was prepared in distilled water (pH 7.4). The tested and the reference compounds were dissolved firstly in PBS resulting in 1000 μg/mL stock solutions. Then a series of working solutions with different concentrations (20–500 μg/mL) in PBS were prepared. The reaction mixture was containing 2 mL test sample/reference of different concentrations and 1 mL albumin (1%). The mixture was incubated at 37 °C for 15 min and then heated at 70 °C for 15 min in water bath. After cooling, the turbidity was measured at 660 nm with a spectrophotometer (Camspec M508, Leeds, UK). Ibuprofen and flurbiprofen were used as reference compounds. The experiment was performed three times. Percentage inhibition of albumin denaturation (IAD) was calculated against the control. The control sample is albumin with the same concentration dissolved in distilled water. %IAD=Ablank−Asample/Ablank×100
as §1

rats = assay: Prediction of acute rat toxicity by GUSAR software; settings: from predicted rat LD50, IV

Compound	IC50 [1] [µM]	IC50 ([1]; listed as ascorbic acid) [µM]	IC50 (bovine trypsin) [µM]	RM ± SD [2]	IC50 (human albumin; read-out: IAD IC50 ± SD) [µM]	toxicity relative to flurbiprofen, intravenous (rats)	IC50 (human albumin; IAD IC50 ± SD) [µM]	IC50 ([1]; listed as quercetin) [µM]
O=C1O[C@H]([C@@H](O)CO)C(O)=C1O [AA, ascorbic acid]	141 ± 2	141						
CC(C(=O)NCCc1ccccc1)c1ccc(-c2ccccc2)c(F)c1 (centres unmarked) [Compound 4a, 2-(2-fluoro-[1,1′-biphenyl]-4-yl)-N-phenethylpropanamide]	223 ± 6		2260 ± 73	1.24 ± 0.02	198 ± 2.3			
COc1cccc(CCNC(=O)C(C)c2ccc(-c3ccccc3)c(F)c2)c1 (centres unmarked) [Compound 4b, 2-(2-fluoro-[1,1′-biphenyl]-4-yl)-N-(3-methoxyphenethyl)propanamide]	201 ± 3.3		208 ± 15	1.13 ± 0.02	188 ± 3			
COc1ccc(CCNC(=O)C(C)c2ccc(-c3ccccc3)c(F)c2)cc1 (centres unmarked) [Compound 4c, 2-(2-fluoro-[1,1′-biphenyl]-4-yl)-N-(4-methoxyphenethyl)propanamide]	144 ± 10		203 ± 14	1.21 ± 0.02	196.9 ± 0.5			
COc1ccc(CCNC(=O)C(C)c2ccc(-c3ccccc3)c(F)c2)cc1OC (centres unmarked) [Compound 4d, N-(3,4-dimethoxyphenethyl)-2-(2-fluoro-[1,1′-biphenyl]-4-yl)propanamide]	199.5 ± 1.3		215 ± 5	1.33 ± 0.02	173.74 ± 0.13			
CC(C(=O)NCCc1cccc(Cl)c1)c1ccc(-c2ccccc2)c(F)c1 (centres unmarked) [Compound 4e, N-(3-chlorophenethyl)-2-(2-fluoro-[1,1′-biphenyl]-4-yl)propanamide]	199 ± 9		198 ± 14	1.41 ± 0.03	193 ± 2.2	four times greater toxicity than flurbiprofen		
CC(C(=O)O)c1ccc(-c2ccccc2)c(F)c1 (centres unmarked) [Flu, flurbiprofen]	1160 ± 64		441 ± 36	1.37 ± 0.02			339	
CC(C)Cc1ccc(C(C)C(=O)O)cc1 (centres unmarked) [Ibu, ibuprofen, reference compound]	618 ± 25		1260 ± 44	1.11 ± 0.01				
O=c1c(O)c(-c2ccc(O)c(O)c2)oc2cc(O)cc(O)c12 [Qrc, quercetin]	229 ± 6							229
